Reference: patent US8791154B2 (Alcon Research, Ltd., priority 2011, dated 2014)
Values after ≈ are worked out from the molar mass of the structure shown.

Assay: Olopatadine solubility in water and in formulations
Type: physicochemical
Settings: for solubility: Concentration (mg/mL) of solubilized olopatadine

solubility (formulation with PVP K29/32, SBE-CD, PEG 400 and HPMC, pH 6.96, aqueous with cosolvent or surfactant or cyclodextrin, 4% PVP K29/32, 1.5% SBE-CD, 4% PEG 400, 0.6% HPMC, final pH 6.96): 7460 µg/mL (≈ 22.1 mM)
solubility (formulation with PVP K29/32, SBE-CD, PEG 400 and HPMC, pH 7.01, aqueous with cosolvent or surfactant or cyclodextrin, 4% PVP K29/32, 2.3% SBE-CD, 4% PEG 400, 0.6% HPMC, final pH 7.01): 8660 µg/mL (≈ 25.7 mM)
solubility (formulation with PVP K29/32, SBE-CD, PEG 400 and HPMC, pH 7.02, aqueous with cosolvent or surfactant or cyclodextrin, 4% PVP K29/32, 2.2% SBE-CD, 4% PEG 400, 0.6% HPMC, final pH 7.02): 8620 µg/mL (≈ 25.5 mM)
solubility (formulation with PVP K29/32, SBE-CD, PEG 400 and HPMC, pH 7.04, aqueous with cosolvent or surfactant or cyclodextrin, 4% PVP K29/32, 2.5% SBE-CD, 4% PEG 400, 0.6% HPMC, final pH 7.04): 9040 µg/mL (≈ 26.8 mM)
solubility (formulation with PVP K29/32, SBE-CD, PEG 400 and HPMC, pH 7.06, aqueous with cosolvent or surfactant or cyclodextrin, 4% PVP K29/32, 2.0% SBE-CD, 4% PEG 400, 0.6% HPMC, final pH 7.06): 8110 µg/mL (≈ 24 mM)
solubility (pH 6.97, aqueous with cosolvent or surfactant or cyclodextrin, 4% PVP K29/32, 1.5% SBE-CD, 4% PEG 400, no HPMC, final pH 6.97): 6130 µg/mL (≈ 18.2 mM)
solubility (pH 6.97, aqueous with cosolvent or surfactant or cyclodextrin, 4% PVP K29/32, 2.0% SBE-CD, 4% PEG 400, no HPMC, final pH 6.97): 6740 µg/mL (≈ 20 mM)
solubility (pH 6.98, aqueous with cosolvent or surfactant or cyclodextrin, 4% PVP K29/32, 2.5% SBE-CD, 4% PEG 400, no HPMC, final pH 6.98): 7340 µg/mL (≈ 21.8 mM)
solubility (pH 7.01, aqueous with cosolvent or surfactant or cyclodextrin, 4% PVP K29/32, 2.2% SBE-CD, 4% PEG 400, no HPMC, final pH 7.01): 6970 µg/mL (≈ 20.7 mM)
solubility (pH 7.02, aqueous with cosolvent or surfactant or cyclodextrin, 4% PVP K29/32, 2.3% SBE-CD, 4% PEG 400, no HPMC, final pH 7.02): 7160 µg/mL (≈ 21.2 mM)
solubility in water (water, pH about 7.0, room temperature, olopatadine by itself): about 0.18 w/v %
SMILES: CN(C)CC/C=C1/c2ccccc2COc2ccc(CC(=O)O)cc21 [Olopatadine]
